Test system: LG0703-F948-PDC complex spheroid viability
Assay: Anticancer human tumor LG0703-F948-PDC patient-derived lung adenocarcinoma cell line growth inhibition [RAS]
Settings: for viability, T/C: stronger effect = lower value; active means viability on the fitted dose curve at most 10% of control; inactive means the rest
Outline: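 Tumour cells grown as complex spheroids with HUVEC endothelial cells and mesenchymal stem cells, treated with RAS pathway inhibitor combinations. Each agent spans half-log steps from near clinical Cmax, or 10 microM where Cmax is unknown.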

[1] = curve of first compound, second compound 0.000949 µM
[2] = curve of first compound, second compound 0.003 µM
[3] = curve of first compound, second compound 0.00949 µM
[4] = curve of first compound, second compound 0.03 µM
[5] = curve of first compound, second compound 0.0949 µM
[6] = curve of first compound, second compound 0.3 µM
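Further: spheroids exposed to agents for 7 days.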
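Wherever viability, T/C is given: 100% = DMSO vehicle wells.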

CCc1c2c(nc3ccc(O)cc13)-c1cc3c(c(=O)n1C2)COC(=O)[C@]3(O)CC + CCn1c(-c2cccnc2C(C)OC)c2c3cc(ccc31)N1CCOC(CC(NC(=O)C(C(C)C)N(C)C(=O)C3(F)CCN(C(=O)C#CC(C)(C)N(C)C)CC3)C(=O)N3CCCC(N3)C(=O)OCC(C)(C)C2)C1
51.8 nM: IC50 [4]
inactive: viability, T/C (second compound 0.000949 µM, first compound 0.000949 µM) 123% | viability, T/C (second compound 0.000949 µM, first compound 0.003 µM) 86.9% | viability, T/C (second compound 0.000949 µM, first compound 0.00949 µM) 103% | viability, T/C (second compound 0.000949 µM, first compound 0.03 µM) 66% | viability, T/C (second compound 0.000949 µM, first compound 0.0949 µM) 43.3% | viability, T/C (second compound 0.000949 µM, first compound 0.3 µM) 30.6% | viability, T/C (second compound 0.003 µM, first compound 0.000949 µM) 130% | viability, T/C (second compound 0.003 µM, first compound 0.003 µM) 102% | viability, T/C (second compound 0.003 µM, first compound 0.00949 µM) 103% | viability, T/C (second compound 0.003 µM, first compound 0.03 µM) 60.5% | viability, T/C (second compound 0.003 µM, first compound 0.0949 µM) 48.1% | viability, T/C (second compound 0.003 µM, first compound 0.3 µM) 30.3% | viability, T/C (second compound 0.00949 µM, first compound 0.000949 µM) 111% | viability, T/C (second compound 0.00949 µM, first compound 0.003 µM) 103% | viability, T/C (second compound 0.00949 µM, first compound 0.00949 µM) 104% | viability, T/C (second compound 0.00949 µM, first compound 0.03 µM) 62.4% | viability, T/C (second compound 0.00949 µM, first compound 0.0949 µM) 46.8% | viability, T/C (second compound 0.00949 µM, first compound 0.3 µM) 26% | viability, T/C (second compound 0.03 µM, first compound 0.000949 µM) 113% | viability, T/C (second compound 0.03 µM, first compound 0.003 µM) 93.9% | viability, T/C (second compound 0.03 µM, first compound 0.00949 µM) 87.5% | viability, T/C (second compound 0.03 µM, first compound 0.03 µM) 56% | viability, T/C (second compound 0.03 µM, first compound 0.0949 µM) 40.4% | viability, T/C (second compound 0.03 µM, first compound 0.3 µM) 27.4% | viability, T/C (second compound 0.0949 µM, first compound 0.000949 µM) 85.7% | viability, T/C (second compound 0.0949 µM, first compound 0.003 µM) 91.2% | viability, T/C (second compound 0.0949 µM, first compound 0.00949 µM) 63.3% | viability, T/C (second compound 0.0949 µM, first compound 0.03 µM) 42.7% | viability, T/C (second compound 0.0949 µM, first compound 0.0949 µM) 27.1% | viability, T/C (second compound 0.0949 µM, first compound 0.3 µM) 22.9% | viability, T/C (second compound 0.3 µM, first compound 0.000949 µM) 44% | viability, T/C (second compound 0.3 µM, first compound 0.003 µM) 49.9% | viability, T/C (second compound 0.3 µM, first compound 0.00949 µM) 46.3% | viability, T/C (second compound 0.3 µM, first compound 0.03 µM) 25.8% | viability, T/C (second compound 0.3 µM, first compound 0.0949 µM) 19.2% | viability, T/C (second compound 0.3 µM, first compound 0.3 µM) 14.1%
19.9 nM: IC50 [5]
63.7 nM: IC50 [3]
< 0.949 nM: IC50 [6]
83.9 nM: IC50 [1]
77 nM: IC50 [2]

CC1(C)CCC(Nc2ncc(C(F)(F)F)c(-c3c[nH]c4c(P(C)(C)=O)c(C#N)ccc34)n2)CN1 (stereo unspecified)
inactive: viability, T/C (compound 0.000949 µM) 91% [middle of 4 runs] | viability, T/C (compound 0.003 µM) 76.9% [middle of 4 runs] | viability, T/C (compound 0.00949 µM) 68.7% [middle of 4 runs] | viability, T/C (compound 0.03 µM) 67.9% [middle of 4 runs] | viability, T/C (compound 0.0949 µM) 65.8% [middle of 4 runs] | viability, T/C (compound 0.3 µM) 67.9% [middle of 4 runs]
> 300 nM: IC50 (curve of compound)

CC(Nc1ccc2c(c1)OCCn1cc(N3C(=O)OCC3C(F)F)nc1-2)C(N)=O (stereo unspecified) + CCn1c(-c2cccnc2C(C)OC)c2c3cc(ccc31)N1CCOC(CC(NC(=O)C(C(C)C)N(C)C(=O)C3(F)CCN(C(=O)C#CC(C)(C)N(C)C)CC3)C(=O)N3CCCC(N3)C(=O)OCC(C)(C)C2)C1
388 nM: IC50 [5]
2580 nM: IC50 [1]
inactive: viability, T/C (second compound 0.000949 µM, first compound 0.0316 µM) 101% | viability, T/C (second compound 0.000949 µM, first compound 0.1 µM) 82.3% | viability, T/C (second compound 0.000949 µM, first compound 0.316 µM) 89.8% | viability, T/C (second compound 0.000949 µM, first compound 1 µM) 63.6% | viability, T/C (second compound 0.000949 µM, first compound 3.16 µM) 46.5% | viability, T/C (second compound 0.000949 µM, first compound 10 µM) 24.1% | viability, T/C (second compound 0.003 µM, first compound 0.0316 µM) 102% | viability, T/C (second compound 0.003 µM, first compound 0.1 µM) 86.6% | viability, T/C (second compound 0.003 µM, first compound 0.316 µM) 72.8% | viability, T/C (second compound 0.003 µM, first compound 1 µM) 61.8% | viability, T/C (second compound 0.003 µM, first compound 3.16 µM) 45.4% | viability, T/C (second compound 0.003 µM, first compound 10 µM) 32.6% | viability, T/C (second compound 0.00949 µM, first compound 0.0316 µM) 102% | viability, T/C (second compound 0.00949 µM, first compound 0.1 µM) 83.2% | viability, T/C (second compound 0.00949 µM, first compound 0.316 µM) 77.8% | viability, T/C (second compound 0.00949 µM, first compound 1 µM) 54.6% | viability, T/C (second compound 0.00949 µM, first compound 3.16 µM) 52.7% | viability, T/C (second compound 0.00949 µM, first compound 10 µM) 25.4% | viability, T/C (second compound 0.03 µM, first compound 0.0316 µM) 100% | viability, T/C (second compound 0.03 µM, first compound 0.1 µM) 81.7% | viability, T/C (second compound 0.03 µM, first compound 0.316 µM) 60.8% | viability, T/C (second compound 0.03 µM, first compound 1 µM) 56.5% | viability, T/C (second compound 0.03 µM, first compound 3.16 µM) 41.5% | viability, T/C (second compound 0.03 µM, first compound 10 µM) 23.3% | viability, T/C (second compound 0.0949 µM, first compound 0.0316 µM) 74.1% | viability, T/C (second compound 0.0949 µM, first compound 0.1 µM) 64.8% | viability, T/C (second compound 0.0949 µM, first compound 0.316 µM) 54.3% | viability, T/C (second compound 0.0949 µM, first compound 1 µM) 35.2% | viability, T/C (second compound 0.0949 µM, first compound 3.16 µM) 31.7% | viability, T/C (second compound 0.0949 µM, first compound 10 µM) 19.9% | viability, T/C (second compound 0.3 µM, first compound 0.0316 µM) 41.6% | viability, T/C (second compound 0.3 µM, first compound 0.1 µM) 32.1% | viability, T/C (second compound 0.3 µM, first compound 0.316 µM) 24.8% | viability, T/C (second compound 0.3 µM, first compound 1 µM) 18.8% | viability, T/C (second compound 0.3 µM, first compound 3.16 µM) 15.4% | viability, T/C (second compound 0.3 µM, first compound 10 µM) 10.1%
1210 nM: IC50 [4]
< 31.6 nM: IC50 [6]
2140 nM: IC50 [3]
2260 nM: IC50 [2]
